In PubChem BioAssay (NCI):
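Where inhibition never reached the appropriate level, the endpoint shown equals the highest concentration tested. Otherwise, values were interpolated linearly from a five-concentration, 48-hour dose response in 96-well plates. TGI marks complete inhibition of growth.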

How the values were obtained:
Experiment in all cases: growth of human tumour cells (NCI), 48 h
[1] = system: T-47D breast
[2] = system: SNB-19 CNS
[3] = system: IGROV1 ovarian
[4] = system: SR leukemia
[5] = system: TK-10 renal
[6] = system: HS 578T breast
[7] = system: MDA-N
[8] = system: CCRF-CEM leukemia
[9] = system: PC-3 prostate
[10] = system: MOLT-4 leukemia
[11] = system: SNB-75 CNS

| SMILES | TGI [1] | TGI [2] | TGI [3] | TGI [4] | TGI [5] | TGI [6] | TGI [7] | TGI [8] | TGI [9] | TGI [10] | TGI [11] |
| --- | --- | --- | --- | --- | --- | --- | --- | --- | --- | --- | --- |
| O=C(OCC1OC2OC(c3ccccc3)(n3ccc4c([N+](=O)[O-])ccnc43)OC2C1OC(=O)c1ccccc1)c1ccccc1 (stereo unspecified) | > 100 µM | > 100 µM | > 100 µM | > 100 µM | > 100 µM | > 100 µM | > 100 µM | > 100 µM | > 100 µM | > 100 µM | – |
| CN(C)c1ccc(C2SCC(=O)N2NS(=O)(=O)c2cccc(C(=O)O)c2)cc1 (stereo unspecified) | > 100 µM | > 100 µM | > 100 µM | – | > 100 µM | > 100 µM | > 100 µM | > 100 µM | > 100 µM | > 100 µM | > 100 µM |
| O=c1nc2c(c(-c3ccccc3Cl)[nH]1)COC/C2=C\c1ccccc1Cl | > 100 µM | > 100 µM | > 100 µM | – | > 100 µM | > 100 µM | > 100 µM | > 100 µM | > 100 µM | > 100 µM | > 100 µM |
| CCOC(=O)c1ccc(N2C(=S)N(C(=O)c3ccccc3)C(=Nc3ccccc3)C2=Nc2ccccc2)cc1 | – | > 100 µM | > 100 µM | > 100 µM | > 100 µM | > 100 µM | > 100 µM | – | > 100 µM | – | 74.6 µM |
| CCCC(C)NC1=C(NC(C)=O)C(=O)c2ccccc2C1=O (stereo unspecified) | – | > 100 µM | > 100 µM | > 100 µM | > 100 µM | – | – | > 100 µM | – | > 100 µM | > 100 µM |
| Cc1cc(C)[n+](CCOc2ccc(/C(=C(/Cl)c3ccccc3)c3ccccc3)cc2)c(C)c1 | – | 5.21 µM | 2.33 µM | 4.32 µM | 13.1 µM | – | – | 3.28 µM | – | 11.3 µM | 4.3 µM |
| O=C(O)CC[N+]1=CCC(c2ccccc2)(c2ccccc2)O1 | > 100 µM | > 100 µM | > 100 µM | – | > 100 µM | > 100 µM | > 100 µM | – | > 100 µM | > 100 µM | > 100 µM |
| COC(=O)C1=C2SCc3cccc(c3)CSC3=C(C(=O)OC)SC(=C(S2)S1)S3 | > 100 µM | > 100 µM | – | – | > 100 µM | – | > 100 µM | > 100 µM | > 100 µM | > 100 µM | > 100 µM |
| CN(C)Cc1cc(C(=O)/C=C/c2ccccc2Cl)cc(CN(C)C)c1O | – | 27.2 µM | 28 µM | 35.5 µM | 34.9 µM | 46.3 µM | 34.1 µM | 8.82 µM | 29.2 µM | 59.8 µM | 19.7 µM |
| CC1=NN(c2ccc(S(=O)(=O)O)cc2)C2(C1)SCC(=O)N2c1nc2ccccc2s1 (stereo unspecified) | > 100 µM | > 100 µM | > 100 µM | – | > 100 µM | > 100 µM | > 100 µM | – | > 100 µM | > 100 µM | > 100 µM |
| COC(=O)[C@@H]1CCCN1CCN1CCC[C@H]1C(=O)OC | > 100 µM | > 100 µM | – | 86.6 µM | > 100 µM | – | > 100 µM | – | > 100 µM | > 100 µM | – |
| O=C(NCCCCCCNCc1cccc2ccccc12)Nc1cccc2ccccc12 | > 100 µM | > 100 µM | > 100 µM | – | > 100 µM | > 100 µM | > 100 µM | > 100 µM | > 100 µM | > 100 µM | > 100 µM |
| O=C1CCCCC(=O)OC2(CCCCC2=O)CC1 (stereo unspecified) | > 100 µM | – | > 100 µM | > 100 µM | > 100 µM | – | > 100 µM | > 100 µM | > 100 µM | > 100 µM | > 100 µM |
| NC(=O)NNC(=O)c1nc[nH]c1[N+](=O)[O-] | > 100 µM | – | > 100 µM | – | > 100 µM | > 100 µM | > 100 µM | > 100 µM | > 100 µM | > 100 µM | > 100 µM |
| Cc1ccc2c(c1)[nH]c1cc(C(F)(F)F)ccc1[p+]2=O (stereo unspecified) | > 100 µM | 76.7 µM | > 100 µM | > 100 µM | > 100 µM | – | > 100 µM | 50.2 µM | 73.5 µM | 52 µM | 55.9 µM |
| CC(=O)C1=C(C)NC2C=CC=CN12 (stereo unspecified) | – | > 100 µM | > 100 µM | > 100 µM | > 100 µM | – | – | > 100 µM | – | > 100 µM | > 100 µM |
| CCCSc1ccc2[nH]c(/N=C/c3ccco3)cc2c1 | > 100 µM | > 100 µM | > 100 µM | 35.7 µM | – | > 100 µM | – | 80 µM | > 100 µM | – | > 100 µM |
| COc1ccc(O)cc1 | – | > 100 µM | > 100 µM | > 100 µM | > 100 µM | – | – | > 100 µM | – | > 100 µM | > 100 µM |
| CCN1C(=O)C(=C/C=C/c2ccc([N+](=O)[O-])cc2)C(=O)N(CC)C1=S | > 100 µM | > 100 µM | 32.6 µM | – | 37.8 µM | 55.1 µM | 67 µM | > 100 µM | 34.6 µM | > 100 µM | – |
| O=C1Nc2c(ccc(Cl)c2I)C1=O | – | > 100 µM | 30.7 µM | 42.2 µM | 99.2 µM | – | – | 60.9 µM | – | 40.1 µM | – |
| NCCSc1nc2ccccc2c(=O)n1-c1ccccc1 | > 100 µM | 57.1 µM | > 100 µM | > 100 µM | > 100 µM | – | > 100 µM | > 100 µM | > 100 µM | – | > 100 µM |
| Cc1cc(C2(O)C=C(C(C)(C)C)C(=O)C(C(C)(C)C)=C2)c(C)cc1C1(O)C=C(C(C)(C)C)C(=O)C(C(C)(C)C)=C1 | > 100 µM | > 100 µM | > 100 µM | > 100 µM | > 100 µM | – | > 100 µM | > 100 µM | > 100 µM | > 100 µM | > 100 µM |
| O=C(Cc1ccccc1)NN1C(=O)/C(=C\c2cccc(O)c2)SC1=Nc1ccccc1 | > 100 µM | > 100 µM | > 100 µM | – | > 100 µM | > 100 µM | > 100 µM | – | – | – | > 100 µM |
